Data reported in patent US9029337B2, “Modulation of factor 7 expression” (Isis Pharmaceuticals, Inc., priority 2007, dated 2015).
Strand notation (5' to 3'): a small letter for the sugar, then the base; units joined by * are phosphorothioate-linked, units joined directly phosphodiester-linked; [ ] holds rarer units or linkages, { } end groups; capitals alone tell only the bases. e = 2'-O-(2-methoxyethyl) (MOE); [5mC] = 5-methylcytosine; d = 2'-deoxy (DNA)

Tests used:
Type in all cases: cell-based
human Factor 7 mRNA [1] = assay: Antisense inhibition of human Factor 7 mRNA in HepB3 cells, 50 nM antisense oligonucleotide, lipofectin; details: Table 13 (microwalk), 50 nM, lipofectin, approximately 24 hours
Summary of the method: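 Seeding density was 4,000 cells per well. Following roughly 24 hours of oligonucleotide treatment, RNA was extracted and Factor 7 message quantified using the RTS 2927 primer probe set. Levels were corrected for RIBOGREEN® total RNA and expressed against untreated controls.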

human Factor 7 mRNA [2] = assay: Dose-dependent antisense inhibition of human Factor 7 in HepB3 cells, electroporation
Method: (§1) The gapmers were also transfected via electroporation and their dose-dependent inhibition of human Factor 7 mRNA was measured. Cells were plated at a density of 20,000 cells per well and transfected via electroporation with 3.125 μM, 6.25 μM, 12.5 μM, 25 μM, 50 μM, and 100 μM concentrations of antisense oligonucleotide, as specified in Table 15. After a treatment period of approximately 16 hours, RNA was isolated from the cells and Factor 7 mRNA levels were measured by quantitative real-time PCR. Human Factor 7 primer probe set RTS 2927 was used to measure mRNA levels. Factor 7 mRNA levels were adjusted according to total RNA content, as measured by RIBOGREEN®. Results are presented as percent inhibition of Factor 7, relative to untreated control cells.
as §1, with “Cells were” for “The gapmers were also transfected via electroporation and their dose-dependent inhibition of human Factor 7 mRNA was measured. Cells were”, “in […]. After a” for “in Table 15. After a”, “cells and human Factor 7” for “cells and Factor 7”

human Factor 7 mRNA [3] = assay: Dose-dependent antisense inhibition of human Factor 7 in HepB3 cells, lipofectin; details: HepB3 cells, approx. 16 hours (Table 14)
Summary of the method: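 HepB3 cells (4,000/well) lipofectin-transfected with antisense oligonucleotide at 3.125 or 6.25 up to 100 nM for ~16 h. Factor 7 mRNA measured by real-time RT-PCR with primer probe set RTS 2927, adjusted to RIBOGREEN total RNA; expressed as percent inhibition versus untreated control cells.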

human Factor 7 mRNA [4] = assay: Antisense inhibition of human Factor 7 with short (14-mer) oligonucleotides in HepB3 cells, electroporation 1,000 nM; details: electroporation, 1,000 nM antisense oligonucleotide, approximately 24 hours, Factor 7 mRNA relative to untreated control cells
Summary of the method: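 14-mer 2-10-2 MOE gapmers (full phosphorothioate, 5-methyl-C) electroporated at 1,000 nM into HepB3 cells at 20,000 cells/well. After ~24 h, Factor 7 mRNA by real-time RT-PCR, normalized to RiboGreen total RNA. Reported as % inhibition relative to untreated cells.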

422087 (antisense e[5mC]*eA*eT*eG*e[5mC]*dA*dT*dG*dG*dT*dG*dA*dT*dG*d[5mC]*eT*eT*e[5mC]*eT*eG) [compound 422087]
% Inhibition (human Factor 7 mRNA [1]): 83% | percent inhibition of Factor 7 mRNA, relative to untreated control cells (human Factor 7 mRNA [2]; 3.125 μM, approx. 16 hours (Table 15, Example 7)): 22% | percent inhibition of Factor 7 mRNA, relative to untreated control cells (human Factor 7 mRNA [2]; 3.125 μM, approx. 16 hours (Table 16, Example 8 confirmation)): 19% | percent inhibition of Factor 7 mRNA, relative to untreated control cells (human Factor 7 mRNA [2]; 6.25 μM, approx. 16 hours (Table 15, Example 7)): 26% | percent inhibition of Factor 7 mRNA, relative to untreated control cells (human Factor 7 mRNA [2]; 6.25 μM, approx. 16 hours (Table 16, Example 8 confirmation)): 38% | percent inhibition of Factor 7 mRNA, relative to untreated control cells (human Factor 7 mRNA [2]; 12.5 μM, approx. 16 hours (Table 15, Example 7)): 48% | percent inhibition of Factor 7 mRNA, relative to untreated control cells (human Factor 7 mRNA [2]; 12.5 μM, approx. 16 hours (Table 16, Example 8 confirmation)): 66% | percent inhibition of Factor 7 mRNA, relative to untreated control cells (human Factor 7 mRNA [2]; 25 μM, approx. 16 hours (Table 15, Example 7)): 57% | percent inhibition of Factor 7 mRNA, relative to untreated control cells (human Factor 7 mRNA [2]; 25 μM, approx. 16 hours (Table 16, Example 8 confirmation)): 75% | percent inhibition of Factor 7 mRNA, relative to untreated control cells (human Factor 7 mRNA [2]; 50 μM, approx. 16 hours (Table 15, Example 7)): 72% | percent inhibition of Factor 7 mRNA, relative to untreated control cells (human Factor 7 mRNA [2]; 50 μM, approx. 16 hours (Table 16, Example 8 confirmation)): 80% | percent inhibition of Factor 7 mRNA, relative to untreated control cells (human Factor 7 mRNA [2]; 100 μM, approx. 16 hours (Table 15, Example 7)): 80% | percent inhibition of Factor 7 mRNA, relative to untreated control cells (human Factor 7 mRNA [2]; 100 μM, approx. 16 hours (Table 16, Example 8 confirmation)): 87% | percent inhibition of Factor 7 mRNA, relative to untreated control cells (human Factor 7 mRNA [3]; 3.125 nM): 14% | percent inhibition of Factor 7 mRNA, relative to untreated control cells (human Factor 7 mRNA [3]; 12.5 nM): 51% | percent inhibition of Factor 7 mRNA, relative to untreated control cells (human Factor 7 mRNA [3]; 25 nM): 73% | percent inhibition of Factor 7 mRNA, relative to untreated control cells (human Factor 7 mRNA [3]; 50 nM): 83% | percent inhibition of Factor 7 mRNA, relative to untreated control cells (human Factor 7 mRNA [3]; 100 nM): 90% | percent inhibition of Factor 7 mRNA, relative to untreated control cells (human Factor 7 mRNA [3]): 24%

435786 (antisense eA*eG*dG*dT*dG*dA*d[5mC]*d[5mC]*d[5mC]*dG*dT*dG*eA*eG) [compound 435786]
% Inhibition (human Factor 7 mRNA [4]): 68%

435654 (antisense eG*e[5mC]*d[5mC]*dG*dT*dT*d[5mC]*dT*d[5mC]*dG*dT*dT*e[5mC]*eA) [compound 435654]
% Inhibition (human Factor 7 mRNA [4]): 71%

435657 (antisense eG*e[5mC]*dA*dG*dT*dA*d[5mC]*dT*dG*d[5mC]*dT*d[5mC]*eA*e[5mC]) [compound 435657]
% Inhibition (human Factor 7 mRNA [4]): 69%

435825 (antisense e[5mC]*eT*dG*dG*dT*dT*dT*dT*dG*dG*dA*dG*eG*eA) [compound 435825]
% Inhibition (human Factor 7 mRNA [4]): 0%

435658 (antisense eT*e[5mC]*dA*d[5mC]*dT*dG*d[5mC]*dA*dG*dT*dA*d[5mC]*eT*eG) [compound 435658]
% Inhibition (human Factor 7 mRNA [4]): 60%

435636 (antisense eG*eA*dG*dA*d[5mC]*d[5mC]*dA*dT*dG*dA*dT*dG*eA*eA) [compound 435636]
% Inhibition (human Factor 7 mRNA [4]): 13%

435809 (antisense e[5mC]*eT*dG*dA*d[5mC]*dA*dA*dT*dG*dT*dG*dA*eT*eG) [compound 435809]
% Inhibition (human Factor 7 mRNA [4]): 5%

435759 (antisense eG*eA*dG*d[5mC]*d[5mC]*dA*d[5mC]*dA*dG*dA*dG*d[5mC]*e[5mC]*eT) [compound 435759]
% Inhibition (human Factor 7 mRNA [4]): 11%

435806 (antisense eT*eG*dA*d[5mC]*d[5mC]*d[5mC]*d[5mC]*dA*d[5mC]*dA*dG*dG*eG*eA) [compound 435806]
% Inhibition (human Factor 7 mRNA [4]): 7%

435675 (antisense eT*eG*dT*d[5mC]*dG*dA*dA*dA*d[5mC]*dA*dG*dT*eG*eG) [compound 435675]
% Inhibition (human Factor 7 mRNA [4]): 24%

435840 (antisense eG*eG*dG*d[5mC]*d[5mC]*d[5mC]*dG*d[5mC]*d[5mC]*dA*d[5mC]*dT*eG*eG) [compound 435840]
% Inhibition (human Factor 7 mRNA [4]): 0%

435681 (antisense eA*eT*dG*dA*d[5mC]*d[5mC]*dT*dG*d[5mC]*dG*d[5mC]*d[5mC]*eA*e[5mC]) [compound 435681]
% Inhibition (human Factor 7 mRNA [4]): 40%

435824 (antisense e[5mC]*e[5mC]*dT*dA*dA*dA*dG*dA*dT*dG*dA*dA*eT*e[5mC]) [compound 435824]
% Inhibition (human Factor 7 mRNA [4]): 21%

435674 (antisense eA*eA*dA*d[5mC]*dA*dG*dT*dG*dG*dG*d[5mC]*d[5mC]*eG*e[5mC]) [compound 435674]
% Inhibition (human Factor 7 mRNA [4]): 34%

435500 (antisense eA*e[5mC]*dT*dG*dG*dG*dA*dG*dA*d[5mC]*d[5mC]*d[5mC]*eT*eG) [compound 435500]
% Inhibition (human Factor 7 mRNA [4]): 49%

435732 (antisense eG*eA*dA*dA*dA*dG*dT*dG*dA*dG*dA*dG*e[5mC]*eT) [compound 435732]
% Inhibition (human Factor 7 mRNA [4]): 0%

435841 (antisense e[5mC]*eT*d[5mC]*dG*dG*dA*d[5mC]*dA*dA*dA*dA*dG*eA*eG) [compound 435841]
% Inhibition (human Factor 7 mRNA [4]): 1%

435795 (antisense eA*e[5mC]*dA*d[5mC]*d[5mC]*d[5mC]*dG*dA*dG*dG*dT*dT*e[5mC]*eA) [compound 435795]
% Inhibition (human Factor 7 mRNA [4]): 66%

435497 (antisense eG*eG*dG*dA*dG*dA*d[5mC]*d[5mC]*d[5mC]*dT*dG*dG*eT*eG) [compound 435497]
% Inhibition (human Factor 7 mRNA [4]): 27%

435664 (antisense eT*eT*dT*dT*dT*d[5mC]*d[5mC]*dA*d[5mC]*dA*dT*dG*eG*eA) [compound 435664]
% Inhibition (human Factor 7 mRNA [4]): 4%

435835 (antisense eT*eT*dA*dT*dT*dT*dG*dG*dG*d[5mC]*dA*dT*eG*eG) [compound 435835]
% Inhibition (human Factor 7 mRNA [4]): 7%

435499 (antisense e[5mC]*eT*dG*dG*dG*dA*dG*dA*d[5mC]*d[5mC]*d[5mC]*dT*eG*eG) [compound 435499]
% Inhibition (human Factor 7 mRNA [4]): 59%

435764 (antisense eT*eG*dA*dG*dA*dG*d[5mC]*dT*dG*d[5mC]*dA*d[5mC]*e[5mC]*eT) [compound 435764]
% Inhibition (human Factor 7 mRNA [4]): 8%

435647 (antisense eA*eG*dA*dT*dA*dT*dA*dG*dG*dA*d[5mC]*dT*eG*eG) [compound 435647]
% Inhibition (human Factor 7 mRNA [4]): 0%

435479 (antisense e[5mC]*eA*d[5mC]*dT*d[5mC]*d[5mC]*d[5mC]*d[5mC]*dT*dT*dT*dG*eG*eG) [compound 435479]
% Inhibition (human Factor 7 mRNA [4]): 9%

435733 (antisense e[5mC]*eT*dG*dA*dA*dT*dT*dG*dT*d[5mC]*dT*dG*eA*eA) [compound 435733]
% Inhibition (human Factor 7 mRNA [4]): 5%

435695 (antisense eG*eA*d[5mC]*dT*dG*d[5mC]*dT*dG*d[5mC]*dA*dG*dG*e[5mC]*eA) [compound 435695]
% Inhibition (human Factor 7 mRNA [4]): 48%

435693 (antisense eG*eG*d[5mC]*dA*dG*dT*d[5mC]*d[5mC]*dT*dG*dG*dG*eT*e[5mC]) [compound 435693]
% Inhibition (human Factor 7 mRNA [4]): 43%

435668 (antisense eT*eG*d[5mC]*d[5mC]*dA*dT*dG*dG*dA*d[5mC]*dA*d[5mC]*eT*e[5mC]) [compound 435668]
% Inhibition (human Factor 7 mRNA [4]): 75%

435722 (antisense eT*eG*dG*dG*d[5mC]*dT*dT*dG*dG*d[5mC]*dT*dG*eA*eA) [compound 435722]
% Inhibition (human Factor 7 mRNA [4]): 50%

435792 (antisense eT*eG*d[5mC]*dT*dG*dA*dA*dG*dA*dA*dA*d[5mC]*eT*eG) [compound 435792]
% Inhibition (human Factor 7 mRNA [4]): 9%

435754 (antisense eT*e[5mC]*dA*dG*d[5mC]*dA*dA*dG*dA*dG*dT*dG*e[5mC]*eA) [compound 435754]
% Inhibition (human Factor 7 mRNA [4]): 16%

435649 (antisense eA*eG*dG*d[5mC]*dA*dG*dA*dA*dG*d[5mC]*dA*dG*eA*eT) [compound 435649]
% Inhibition (human Factor 7 mRNA [4]): 21%

435659 (antisense eT*eA*d[5mC]*d[5mC]*d[5mC]*d[5mC]*dT*d[5mC]*dG*dT*dG*dG*e[5mC]*eA) [compound 435659]
% Inhibition (human Factor 7 mRNA [4]): 18%

435653 (antisense eA*eT*d[5mC]*dA*dG*d[5mC]*dT*dG*dG*dT*d[5mC]*dA*eT*e[5mC]) [compound 435653]
% Inhibition (human Factor 7 mRNA [4]): 32%

435689 (antisense eT*eT*d[5mC]*dG*dG*dG*d[5mC]*dA*dG*dG*d[5mC]*dA*eG*eA) [compound 435689]
% Inhibition (human Factor 7 mRNA [4]): 23%
